One compound from patent US7887840B2, “Pharmaceutical compositions comprising drug and concentration-enhancing polymers” (Bend Research, Inc., priority 2001, dated 2011) can be followed below.

Counter-ions that a name gives are not always drawn.

A short description of the data set: in vitro dissolution test using a microcentrifuge method. In kind it is physicochemical. The arrangement: AUC / AUC90: concentration or dose not given beside the values. Particulars: for Ziprasidone Concentration: 50 mM MOPS buffer with 150 mM NaCl, pH 7.4, 37° C., supernatant after centrifugation. Here is the method: The dissolution of ziprasidone from the complex mixed with various concentration-enhancing polymers was evaluated in an in vitro dissolution test using a microcentrifuge method. […] The polymer amounts are expressed as wt % based on the weight of the complex. […] Ltd., Tokyo, Japan). […] Tests were performed in duplicate. The tubes were placed in a 37° C. temperature-controlled chamber, and 1.8 mL of 50 mM 4-morpholinepropanesulfonic acid (MOPS) buffer with 150 mM NaCl (pH 7.4) was added. The samples were quickly mixed using a vortex mixer for about 60 seconds. […] The resulting supernatant solution was then sampled and diluted 1:4 (by volume) with methanol and then analyzed by high-performance liquid chromatography (HPLC). A Phenomenex Ultracarb 5 ODS HPLC column was used with a mobile phase of 60 vol. % of 0.02 M KH2PO4 (pH 3.0), and 40 vol. % acetonitrile. UV detection was measured at 254 nm. The contents of the tubes were mixed on the vortex mixer and allowed to stand undisturbed at 37° C. until the next sample was taken. […] The concentrations of drug obtained in these samples are shown below. The dissolution of ziprasidone from these complexes mixed with concentration-enhancing polymer was evaluated using the in vitro dissolution test described in the Examples above.

What is called AUC is the area under the concentration-time curve, a measure of exposure. Compound `O=C1Cc2cc(CCN3CCN(c4nsc5ccccc45)CC3)c(Cl)cc2N1` [Example C2, ziprasidone mesylate] gave an AUC90 (dissolution AUC 0-90 min, MOPS buffer pH 7.4, 37° C.) of 100 µg·min/mL. The AUC (dissolution AUC up to 0 min, MOPS buffer pH 7.4, 37° C.) turned out to be 0 µg·min/mL; the AUC (dissolution AUC up to 4 min, MOPS buffer pH 7.4, 37° C.) was found to be 0 µg·min/mL; the AUC (dissolution AUC up to 10 min, MOPS buffer pH 7.4, 37° C.) came to 0 µg·min/mL; the AUC (dissolution AUC up to 30 min, MOPS buffer pH 7.4, 37° C.) is 0 µg·min/mL; the AUC (dissolution AUC up to 60 min, MOPS buffer pH 7.4, 37° C.) is 0 µg·min/mL; the AUC (dissolution AUC up to 90 min, MOPS buffer pH 7.4, 37° C.) was 100 µg·min/mL. For the same compound, the “Cmax,90” value (maximum ziprasidone concentration within 90 min, MOPS buffer pH 7.4, 37° C.) was 3 µg/mL. In addition, the “Ziprasidone Concentration” value reads like this: (time 0 min) 0 µg/mL; (time 4 min) 3 µg/mL; (time 10 min) 1 µg/mL; (time 30 min) 1 µg/mL; (time 60 min) 1 µg/mL; (time 90 min) 1 µg/mL.
